Legend:
[1] = tested on: in vitro rat hearts; assay: TUNEL assay of apoptosis in isolated rat hearts after global ischemia/reperfusion
Description: Hearts from Sprague Dawley rats perfused continuously with bicarbonate buffer for 245 minutes served as non-ischemic controls (FIG. 5). Hearts aerobically perfused for 35 minutes and subjected to 25 minutes of global ischemia followed by 3 hours reperfusion served as the ischemia-reperfusion control group. Hearts aerobically perfused with buffer for 20 minutes and then perfused with Tpo (1 ng/ml) for 15 minutes before ischemia and reperfusion served as a Tpo-treated group. Each heart at the end of perfusion was snap frozen in liquid nitrogen. Four frozen sections (10 micron thick) from each heart (72 sections total) were processed for TUNEL assay according to the manufacturers protocol (Roche). The slides were examined under fluorescent microscope (400× magnification, excitation 490 nm, and emission 515 nm). Twenty-two random high-power fields from each heart sample were chosen and blindly quantified. TUNEL results are presented as % (positive nuclei per field/total nuclei per field×100%).

[2] = tested on: Sprague Dawley rats; assay: Coronary artery ligation model, Tpo given after the onset of reperfusion; type: in vivo, rat; details: Tpo 0.05 μg/kg i.v. 10 seconds following reperfusion after 30 min regional ischemia
Description: FIG. 10 is a graphic depiction of the effect of Tpo (0.05 μg/kg) on myocardial infarct size in vivo (as percentage % of area at risk) when administered intravenously 10 seconds after the onset of 3 hours reperfusion following 30 minutes regional myocardial ischemia in vivo induced by suture ligation of the left main coronary artery. *=P<0.05, with Tpo vs. without Tpo (control).
(§1) Animals used in this study were adult male Sprague Dawley rats (200-350 g, generally 300 g). Animals were housed under standard conditions and allowed to feed ad lib. The Animal Care and Use Committee of the Medical College of Wisconsin approved all procedures performed in accordance with the regulations adopted by the National Institutes of Health.
A myocardial infarction was produced via the ligation of the left main artery using 6-0 prolene suture (See, e.g., Clements-Jewery, et al., supra, 2002; Farkas, et al., supra, 2002). Rats were anesthetized with sodium pentobarbital (50 mg/kg i.p.). The left main coronary artery was identified and ligated with a 5-0 Prolene suture threaded through a polyethylene tube to act as an occluder. […]
(§2) The heart was sectioned in 2 mm segments from apex to atrio-ventricular groove in a transverse fashion. Each segment was recorded and placed in formalin. […] The percentage of infarction of each slide was expressed as a percentage of the entire area of the heart.

[3] = tested on: Sprague Dawley rats; assay: Coronary artery ligation model, regional myocardial ischemia in vivo, Tpo given 15 min prior to ischemia; design: species or system rat
Description: as §1
(§3) Rats were anesthetized with sodium pentobarbital (50 mg/kg i.p.). Heparin was administered (150 U/kg i.p.) to prevent the formation of a thrombus in the coronary vasculature. A myocardial infarction was produced via the ligation of the left main artery using 6-0 prolene suture (See, e.g., Clements-Jewery, et al., Br. J. Pharmacol. 135:807-815, 2002; Farkas, et al., J. Cardiovasc. Pharmacol. 39:412-424, 2002). The left main coronary artery was identified and ligated with a 5-0 Prolene suture threaded through a polyethylene tube to act as an occluder. A control group included sham operated hearts in which only a suture was passed around the left main coronary artery was performed.
Animals were treated with Tpo (0.005-0.5 micrograms/kg) administered intravenously for 15 minutes prior to the onset of ischemia. Regional ischemia and reperfusion were induced by tightening the occluder and by releasing it. Hearts were then subjected to 30 minutes regional ischemia followed by 3 hours reperfusion. Recovery of left ventricular developed pressure and infarct size/area at risk at 3 hours reperfusion were used to assess resistance to myocardial ischemia. For characterization of infarction size, hearts were perfused with 10 ml bicarbonate buffer containing triphenyltetrazolium chloride (SIGMA) at 37° C.
The heart was sectioned in 2 mm segments from apex to atrio-ventricular groove in a transverse fashion. Each segment was recorded and placed in formalin. After twenty-four (24) hours, the specimen was digitally photographed in a camera mount to normalize specimen-to-lens distance. Each photograph was then appended to Adobe Photoshop (Adobe™) to measure pixel density of infarcted versus non-infarcted areas. The percentage of infarction of each slide was expressed as a percentage of the entire area of the heart.
There was no significant difference in body weight, heart weight or risk zone size between groups. […] Significant differences were found for mean arterial pressure and rate pressure for some groups when compared to sham. For each group, the area at risk compared to total left ventricle weight was calculated. There were no significant differences seen between groups (data not shown).

[4] = tested on: Sprague Dawley rats; assay: Coronary artery ligation model, delayed cardioprotection, Tpo given 24 hours before ischemia; type: in vivo, rat; details: Tpo 0.05 micrograms/kg 24 hours before 30 min regional ischemia, 3 hours reperfusion
Description: Animals used in this study were adult male Sprague Dawley rats (200-350 g, generally 300 g). Animals were housed under standard conditions and allowed to feed ad lib.
as §3, with “supra,” for “Br. J. Pharmacol. 135:807-815,”, “Farkas” for “Farkas,”, “supra,” for “J. Cardiovasc. Pharmacol. 39:412-424,”
Animals were treated with Tpo (0.05 micrograms/kg) administered intraperitoneally and the animals allowed to recover for 24 hours prior to the onset of ischemia. Regional ischemia and reperfusion were induced by tightening the occluder and by releasing it. Hearts were then subjected to 30 minutes regional ischemia followed by 3 hours reperfusion. […]
as §2

[5] = tested on: healthy individuals and those about to receive chemotherapy; details: human trials, Tpo doses of 1-5 μg/kg; cited from earlier work
[6] = 15 min ISCHEMIA, Tpo 0.005 μg/kg i.v.
[7] = 15 min ISCHEMIA, Tpo 0.05 μg/kg i.v.
[8] = 15 min ISCHEMIA, Tpo 0.5 μg/kg i.v.
[9] = 3 hr REPERFUSION, Tpo 0.005 μg/kg i.v.
[10] = 3 hr REPERFUSION, Tpo 0.05 μg/kg i.v.
[11] = 3 hr REPERFUSION, Tpo 0.5 μg/kg i.v.

Thrombopoietin [Tpo]
TUNEL-positive cells ([1]; Tpo 1.0 ng/ml 15 min before 25 min global ischemia, 3 hours reperfusion, ischemia control 3.56±0.75%, non-ischemic 1.91±0.54%): 1.94±0.55%
Apoptosis following ischemia and reperfusion ([1]; Tpo 1.0 ng/ml prior to ischemia): reduced
Myocardial infarct size [2]: decrease
Heart rate [3, 6]: 374 ± 12 beats/min
Mean arterial pressure [3, 6]: 104 ± 11 mmHg
Heart rate [3, 7]: 352 ± 11 beats/min
Mean arterial pressure [3, 7]: 124 ± 11 mmHg
Heart rate [3, 8]: 382 ± 13 beats/min
Mean arterial pressure [3, 8]: 121 ± 13 mmHg
Heart rate [3, 9]: 359 ± 13 beats/min
Mean arterial pressure [3, 9]: 92 ± 7 mmHg
Heart rate [3, 10]: 332 ± 11 beats/min
Mean arterial pressure [3, 10]: 105 ± 11 mmHg
Heart rate [3, 11]: 364 ± 13 beats/min
Mean arterial pressure [3, 11]: 108 ± 16 mmHg
Heart rate ([3]; BASELINE, Tpo 0.005 μg/kg i.v.): 386 ± 17 beats/min
Mean arterial pressure ([3]; BASELINE, Tpo 0.005 μg/kg i.v.): 133 ± 13 mmHg
Heart rate ([3]; BASELINE, Tpo 0.05 μg/kg i.v.): 342 ± 16 beats/min
Mean arterial pressure ([3]; BASELINE, Tpo 0.05 μg/kg i.v.): 138 ± 6 mmHg
Heart rate ([3]; BASELINE, Tpo 0.5 μg/kg i.v.): 371 ± 11 beats/min
Mean arterial pressure ([3]; BASELINE, Tpo 0.5 μg/kg i.v.): 144 ± 6 mmHg
Optimal concentration of Tpo that afforded maximum reduction of infarct size ([3]; Tpo 0.005-0.5 μg/kg i.v. 15 min prior to ischemia): 0.05 µg/kg
Post ischemic myocardial infarct size ([3]; Tpo i.v. 15 min prior to 30 min regional ischemia, 3 hours reperfusion, 'U' shaped dose dependence): decreased
Myocardial infarct size [4]: decrease
Increase of platelet production [5]: 5-10 times
